The values below come from patent publication US6919094B1, “Composition of medicine for treating headache disease and process of preparation and uses thereof” (priority 2000, dated 2005).

The subject of assay [1] is Kunming mice. Description: mouse's spontaneous activity. Type of assay: in vivo. Conditions: 5 × 10-2 g/kg PO. From the text: Kunming mice weighing 18-22 g were chosen and divided into groups at random. Each group was made up of 10 mice.
The test system of assay [2] is female NIH mice. The experiment in a line: mouse hot-plate method pain threshold. In kind it is in vivo. The following applies: 1.5 × 10-2 g/kg ip. The method, then:
2.1 The influence on the mouse's reaction to the heat: The experiment referred to the mouse hot-plate method: female NIH mice weighing 18-22 g were put on the type CS501 ultra thermostat's metallic plate, on which the temperature was 55.0±0.5° C. The action of sucking the postpedes and jumping were concerned as the indexes to the pain caused by the heat and the shortest time when the mouse shown the indexes was defined as the pain threshold. The sensitive mice whose pain threshold were shorter than 30 s were chosen and divided into 4 groups according to their pain threshold, each group including 10 mice. […] If the threshold was beyond 60 s, it would be recorded as 60 s. […] The group on the dosage of 5.0 g/kg improved the pain threshold by 148.74% (p<0.001), and the effect lasted 5 hours.

Assay [3] has as its system SD white rats. The experiment in a line: rat's tail-whipping method pain threshold. In kind it is in vivo. The following applies: 1.5 × 10-2 g/kg PO. On the procedure: 2.2 The influence on the rat's reaction to the heat. The experiment referred to the rat's tail-whipping method: SD white rats weighing 180-220 g were chosen and the distal ⅓ of their tails were dipped into hot water in which the temperature was regulated to 55.0±0.5° C. by the CS501 ultra thermostat. The tail's whipping out of the water was defined to be the index of pain. The rats were divided equably into 5 groups according to the pain threshold and each group had 9 rats. […] (p<0.05), 64.52% (P<0.05), the duration of effect was 1 h, 4 h.

Assay [4] relates to spontaneous hypertension rat (SHR). Description: BP of the spontaneous hypertension rat. The following applies: 2 × 10-2 g/kg PO. Type of assay: in vivo.
In assay [5] the test system is rabbit platelet. The experiment in a line: rabbit platelet aggregation induced by ADP (Born's method). Type of assay: cell-based. The following applies: rabbit platelet-rich plasma, ADP 12 μM, 5th minute, 0.27 mg/ml. The method, then:
1.1 The influence on the rabbit platelet's aggregative character: Rabbit platelet plasma was prepared according to the Csalay's method. Lucid rabbit's blood was collected by carotid arterial cannula, then the blood was mingled with 3.8% sodium citrate in proportion of 9:1 to anticoagulate. The mixture was centrifuged on the speed of 1000 rpm for 5 minutes then at the speed of 3000 rpm for 10 minutes. The blood plasma was separated into the platelet-rich plasma and the platelet-absent plasma. When conducting the measurement, the platelet aggregation percent was regulated to 50-60%. The platelet aggregation experiment was performed according to the Born's method by the PPP autobalance platelet-aggregation-machine (type SPA-3), keeping the concentrate of ADP(the aggregation inducer) at 12 μM, then collecting the data and comparing the aggregation percents between the treatment group and the control group at the 5th minute.

The subject of assay [6] is rat platelet. The experiment in a line: rat platelet aggregation after gastric administration. In kind it is in vivo. The following applies: 2.7 × 10-2 g/kg PO, ADP 2.8 μM. The method, then:
1.1 The influence on the rabbit platelet's aggregative character: Rabbit platelet plasma was prepared according to the […] method. […] The mixture was centrifuged on the speed of 1000 rpm for 5 minutes then at the speed of 3000 rpm for 10 minutes. The blood plasma was separated into the platelet-rich plasma and the platelet-absent plasma. […] 1.5 hour after the administration, the blood from the abdominal aorta was collected on the condition of anesthesia by ether. The platelet plasma was prepared by the same method mentioned above, and the PLT aggregation experiment performed by the same machine with a different ADP concentrate of 2.8 μM.

The test system of assay [7] is male Wistar rats. The experiment in a line: rat's experimental thrombosis (extracorporeal circulation). Type of assay: in vivo. Conditions: 0.05 g/kg iv. The method, then:
1.3 The influence on the rat's experimental thrombosis: Male Wistar rats weighing 270-370 g were chosen to be anaesthetized by belly injection of sodium pentobarbital on the dosage of 50 mg/kg, then the rats were fixed at the supine position and the right common carotid artery and the left external jugular vein were detached. A polyvinyl pipe of 19.5 cm long with the inside diameter of 1.5 mm embedded in a 5.0 cm-long type 4 suture and filled with the solution of heparin and normal saline (25 μ/kg) was inserted into the right common carotid artery one end and the left external jugular vein the other end. […] 15 minutes later, the pipe was closed, the suture taken out and the greenweight measured.

Assay [8] concerns female NIH mice. The experiment in a line: mouse electrostimulation pain threshold. In kind it is in vivo. The following applies: 0.05 g/kg ip. From the text:
2.3 The influence on the electrostimulation of mouse: The experiment method adopted was to simulate the mouse's vola with the electricity. Female NIH mice weighing 18-22 g were chosen and put on the conductive copper-wire plate of the YSD-4 multipurpose apparatus's zoopery box. The electricity was switched on and the time when the mouse […] chosen as the index of pain threshold. The sensitive mice whose pain thresholds were shorter than 15 s were chosen to do the experiment.

Assay [9] concerns female NIH mice. Description: mouse's body-twisting method (ethanoic acid). In kind it is in vivo. The following applies: 0.10 g/kg ip, 0.8% ethanoic acid, 20 minutes. The method, then: The experiment method was the mouse's body-twisting method. Female NIH mice weighing 18-22 g were divided into groups at random and each group had 10 mice. […] The number of the mice's body twisting in the following 20 minutes were recorded as the index.

SMILES strings stand for the structures.

Consider `COc1cc2c(cc1OC)[C@@H]1Cc3ccc(OC)c(OC)c3CN1CC2` [tetrahydropalmatine], for which the “Amount of spontaneous activity” value in assay [1] came out at 24.3 ± 4.3.

As to `CN1CC[C@]23c4c5ccc(O)c4O[C@H]2[C@@H](O)C=C[C@H]3[C@H]1C5.Cl` [Morphine hydrochloride], the “pain threshold (hot-plate method)” value in assay [2] (1/2 h after administration, cut-off 60 s) is on record as more than 60 s; in [2] (1 h after administration, cut-off 60 s), more than 60 s; in assay [2] (3 h after administration, cut-off 60 s), more than 60 s; in assay [2] (5 h after administration, cut-off 60 s) it was more than 60 s; in assay [2] (before administration), 22.5 ± 2.4 s. In addition, the “pain threshold (tail-whipping method)” value in [3] (1/2 h after administration) amounted to 9.2 ± 0.8; in assay [3] (1 h after administration), 5.7 ± 0.4; in assay [3] (2 h after administration), 4.5 ± 0.4; in assay [3] (4 h after administration), 3.3 ± 0.4; in [3] (before administration) it was 3.2 ± 0.3.

For the molecule `C[C@H](CS)C(=O)N1CCC[C@H]1C(=O)O` [Captopril], the blood pressure is reported as 113.5 ± 3.9 in assay [4] (1/2 week); 138.2 ± 3.6 in [4] (1 week); 142.3 ± 1.8 in [4] (2 week); 140.0 ± 2.0 in [4] (3 week); 170.5 ± 2.9 in [4] (before administration).

In assay [5], `CC(=O)Oc1ccccc1C(=O)O` [Aspirin] had an aggregation percent of 39.94 ± 2.05 %. Further, the “platelet aggregation percent (max)” value in [6] is given as 31.06 ± 3.80 %. In addition, the greenweight of thrombus in [7] is 18.28 ± 1.28 mg.

As for `Cc1c(N(C)C)c(=O)n(-c2ccccc2)n1C` [aminopyrine], the “pain threshold in the electrostimulation experiment” value in assay [8] (after administration) is reported as 21.3 ± 5.5 s; in [8] (before administration), 4.8 ± 1.0 s. The twist times in assay [9] worked out at 2.8 ± 1.3.
